According to US20260306452A1, “5-METHOXY-N,N-DIMETHYLTRYPTAMINE (5-MEO-DMT) PHARMACEUTICAL COMPOSITIONS” (Beckley Psytech Limited, priority 2023, published 2026):
Structures can show the parent of a compound that is named as a salt. Where two headings read alike, the source gives them in different places.

Legend:
[1] = type: in vivo, human (healthy subjects)
Procedure: A double-blind, randomised, Phase 1, single ascending dose study to evaluate the safety, tolerability and pharmacokinetic profile of intranasal 5-MeO-DMT benzoate in healthy subjects was performed.

[2] = type: in vivo, human
Description: For example, some subjects report nasal discomfort when treated with a single intranasal dose of a salt of 5-MeO-DMT. Additionally, some subjects experienced nausea and vomiting when given a higher single dose of a salt of 5-MeO-DMT. So, the frequency/likelihood of physical discomfort when using the 5-MeO-DMT salt should be minimised or substantially eliminated.

[3] = Subjective Dose Intensity (SDI) / duration of the trip; type: in vivo, human
Irritation tolerability = conditions: in particular compared to the chloride salt
[4] = 30-item Mystical Experience Questionnaire (MEQ30), mystical / peak experience; type: in vivo, human
Description: The MEQ30 is a self-report measure that has been used to measure mystical-type experiences in studies of psychedelics. It is known that the occurrence of a mystical experience, following treatment with a psychedelic, is a primary predictor of therapeutic outcomes in patients. Typically, a complete mystical experience is defined as scoring 60% or more on all four factors of the MEQ30. The four factors of the MEQ30 are: mystical, positive mood, transcendence of time and space, and ineffability. Subjects being treated with the 5-MeO-DMT salt are coached prior to dosing, but nevertheless for some subjects, a rapid onset of an intense Mystical Experience can be unsettling. In such a scenario, the medical practitioners and associated support system is also put under an additional monitoring and care load. So, the frequency/likelihood of rapid onset of an intense Mystical Experience using the 5-MeO-DMT salt should be minimised or substantially eliminated.
Each quadrant of a pie is fully coloured if a value equal to or greater than 3 is reached for that dimension (wherein the four quadrants represent the four factors of the MEQ30: mystical, positive mood, transcendence of time and space, and ineffability). Each pie represents a single individual who received the respective dose. It can be seen that the 4/6 individuals who received 12 mg total dose of 5-MeO-DMT benzoate in a biphasic fashion achieved mystical experiences, which represents a 66% success rate.

[5] = Hygroscopicity / water uptake; type: physicochemical; conditions: for total water uptake: between 0% RH and 90% RH at 25° C.
Procedure: (§1) In an embodiment, the 5-MeO-DMT is administered as a crystalline form of the benzoate salt. Crystalline forms of the benzoate salt are disclosed in WO2021250434 and are incorporated herein. Crystalline forms of the hydrochloride salt are also disclosed in WO2021250434 and are incorporated herein. In an embodiment, crystalline 5-MeO-DMT hydrochloride is characterised by peaks in an X-ray powder diffraction (XRPD) diffractogram at 2θ values of 9.2°±0.1°, 12.2°±0.1°, 14.1°±0.1°, 15.0°±0.1°, 18.5°±0.1°, and 19.5°±0.1°, as measured using an X-ray wavelength of 1.5406 Å. In an embodiment, the 5-MeO-DMT salt is a non-hygroscopic salt. […] The non-hygroscopic, highly soluble HBr salt of 5-MeO-DMT therefore affords the advantage of removing the need for costly and burdensome processing measures, for example the need for low humidity manufacturing environment.

[6] = Phase 1 single ascending dose study, intranasal 5-MeO-DMT HCl, plasma pharmacokinetics; type: in vivo, human (healthy subjects)
Procedure: In an embodiment, there is provided a dose-proportional salt of 5-MeO-DMT for use in the methods disclosed herein. In an embodiment, the dose-proportional salt of 5-MeO-DMT is the benzoate salt. A double-blind, randomised, Phase 1, single ascending dose study to evaluate the safety, tolerability and pharmacokinetic profile of intranasal 5-MeO-DMT HCl (5-MeO-DMT HCl, HPMC, water for injection (WFI) and a sodium hydroxide solution to adjust pH) in healthy subjects was performed.

Solubility of salts = type: physicochemical; conditions: compared to moderately hygroscopic salts, e.g. benzoate or oxalate
Procedure: as §1

[7] = 6 mg intranasal, single nostril
[8] = 8 mg intranasal, single nostril
[9] = 10 mg intranasal, single nostril
[10] = 12 mg (biphasic): 4 mg one nostril then 8 mg other nostril
[11] = 12 mg intranasal, single nostril (monophasic)
[12] = 12 mg biphasic vs 12 mg monophasic
[13] = 12 mg total dose, biphasic (4 mg + 8 mg)

CN(C)CCc1c[nH]c2ccc(O)cc12 [Bufotenin]
detection of the O-demethylated metabolite in plasma ([1]; 6 mg dose level of 5-MeO-DMT benzoate, after the 16 minutes time point): only detected at very low levels

COc1ccc2[nH]cc(CCN(C)C)c2c1.O=C(O)c1ccccc1 [5-MeO-DMT benzoate, 5-methoxy-N,N-dimethyltryptamine (5-MeO-DMT) Benzoate]
Vomiting (% subj. incl. PBO) ([2]; 4 mg intranasal): 33%
Vomiting (% subj. incl. PBO) [2, 7]: 0%
Vomiting (% subj. incl. PBO) [2, 8]: 0%
Vomiting (% subj. incl. PBO) [2, 9]: 0%
Vomiting (% subj. incl. PBO) [2, 10]: 17%
Vomiting (% subj. incl. PBO) [2, 11]: 29%
overall tolerability profile ([2]; intranasal): good (and better than the corresponding and better known chloride salt)
Duration of the trip (estimate based on intensity) ([3]; 4 mg intranasal): 18 min
Duration of the trip (estimate based on intensity) [3, 7]: 31 min
Duration of the trip (estimate based on intensity) [3, 8]: 40 min
Duration of the trip (estimate based on intensity) [3, 9]: 46 min
Duration of the trip (estimate based on intensity) [3, 10]: 70 min
length of psychedelic experience, comparison [3, 12]: longer psychedelic experience
duration of ‘trip’, comparison ([3]; 12 mg biphasic vs other doses): longer duration of ‘trip’
Duration of the trip (estimate based on intensity) [3, 11]: 50 min
subjective intensity/mystical experience despite lower peak plasma concentration ([3]; biphasic administration): did not result in a lower subjective intensity/mystical experience
stability profile (Stability profile): good stability profile
irritation tolerability (Irritation tolerability): good irritation tolerability
efficacy ([4]; 4 mg first dose followed by 8 mg second dose): good efficacy
Peak exp. (%) ([4]; 4 mg intranasal): 0%
Peak exp. (%) [4, 7]: 25%
Peak exp. (%) [4, 8]: 20%
Peak exp. (%) [4, 9]: 60%
Peak exp. (%) [4, 10]: 66%
% peak experience, comparison ([4]; 12 mg biphasic vs other doses): the highest % peak experience
Peak exp. (%) [4, 11]: 60%
individuals who achieved mystical experiences [4, 13]: 4/6
success rate (mystical experiences, MEQ30) [4, 13]: 66%
MEQ30 score ([4]; single intranasal dose): > 3
success rate (mystical experiences, MEQ30) ([4]; singular 10 mg dose): 60%
success rate (mystical experiences, MEQ30) ([4]; singular 12 mg dose): 60%
hygroscopicity [5]: moderately hygroscopic
AUC inf ([1]; 4 mg intranasal): 5.0 ng·h/mL
Cmax ([1]; 4 mg intranasal): 8.7 ng/mL
Tmax ([1]; 4 mg intranasal): 7.0 min
T½ ([1]; 4 mg intranasal): 22.4 min
AUC inf [1, 7]: 9.8 ng·h/mL
Cmax [1, 7]: 14.9 ng/mL
Tmax [1, 7]: 9.0 min
T½ [1, 7]: 22.2 min
AUC inf [1, 8]: 14 ng·h/mL
Cmax [1, 8]: 22.1 ng/mL
Tmax [1, 8]: 10.6 min
T½ [1, 8]: 17.7 min
AUC inf [1, 9]: 15.4 ng·h/mL
Cmax [1, 9]: 32.3 ng/mL
Tmax [1, 9]: 8.4 min
T½ [1, 9]: 22.7 min
AUC inf [1, 10]: 10.7 ng·h/mL
Cmax [1, 10]: 16.7 ng/mL
Tmax [1, 10]: 27 min
T½ [1, 10]: 16.1 min
peak plasma concentration, comparison [1, 12]: lower peak plasma concentration
rise to peak mean plasma concentration [1, 12]: slower rise to peak mean plasma concentration
mean Cmax ([1]; 12 mg dosage, intranasal): 29 ng/mL
AUC inf [1, 11]: 23 ng·h/mL
Cmax [1, 11]: 28.9 ng/mL
Tmax [1, 11]: 15.3 min
T½ [1, 11]: 26.6 min
observed peak plasma concentration vs prediction ([1]; biphasic administration): significantly lower than that which was expected
dose linearity of pharmacokinetics ([1]; intranasal, healthy subjects): approximately dose linear

COc1ccc2[nH]cc(CCN(C)C)c2c1 [5-MeO-DMT tosylate]
total water uptake [5]: approximately 1.9 % w/w
hygroscopicity ([5]; listed as tosylate salt): slightly hygroscopic

COc1ccc2[nH]cc(CCN(C)C)c2c1.O=C(O)C(=O)O [5-MeO-DMT oxalate]
hygroscopicity [5]: moderately hygroscopic

COc1ccc2[nH]cc(CCN(C)C)c2c1 [5-MeO-DMT, 5-methoxy-N,N-dimethyltryptamine]
shape of mean plasma concentration curve ([1]; biphasic administration): m-like biphasic curve

COc1ccc2[nH]cc(CCN(C)C)c2c1 [5-MeO-DMT phosphate]
hygroscopicity ([5]; listed as phosphate salt): slightly hygroscopic

COc1ccc2[nH]cc(CCN(C)C)c2c1 [5-MeO-DMT tartrate]
total water uptake [5]: approximately 3.3 % w/w
hygroscopicity ([5]; listed as tartrate salt of 5-MeO-DMT): moderately hygroscopic

COc1ccc2[nH]cc(CCN(C)C)c2c1.Cl [5-MeO-DMT HCl]
mean concentration profiles between doses ([6]; 5 mg, 8 mg, 10 mg, 11 mg and 14 mg intranasal): substantially similar
dose-proportional pharmacokinetics ([6]; intranasal, healthy subjects): does not display dose-proportional pharmacokinetics

Br.COc1ccc2[nH]cc(CCN(C)C)c2c1 [5-MeO-DMT hydrobromide]
solubility (Solubility of salts): high solubility
hygroscopicity [5]: substantially non-hygroscopic

COc1ccc2[nH]cc(CCN(C)C)c2c1 [5-MeO-DMT ketoglutarate]
rapid increase of water uptake ([5]; 90% RH): 28.140 w/w
gradual water uptake, lower humidity ([5]; 403RH as printed): 0.13 % w/w
gradual water uptake, upper humidity ([5]; 801 RH as printed): 2.55 w/w
